Experimental data as given in patent US6287794A, “Factor Vlla inhibitors” (Aventis Pharma Deutschland GmbH, priority 1998, dated 2001).
Starred links: 1 amine or outer side, 2 acyl side, 3 side chain; linkers in the order of their positions; H or OH if unused. Non-standard residues stand in square brackets, D forms with d. Residues, ends and D or L forms follow the SMILES beside them. *: point of attachment. dPhe(4-guanidino) = N=C(N)Nc1ccc(C[C@@H](N)C(=O)O)cc1; Phe(4-guanidino) = N=C(N)Nc1ccc(C[C@H](N)C(=O)O)cc1; Phe(4-amidino) = N=C(N)c1ccc(C[C@H](N)C(=O)O)cc1; Orn(acetimidoyl) = CC(=N)NCCC[C@H](N)C(=O)O; d(hArg) = N=C(N)NCCCC[C@@H](N)C(=O)O; Abu(4-CN) = N#CCC[C@H](N)C(=O)O; Cha = N[C@@H](CC1CCCCC1)C(=O)O; Ala(CN) = N#CC[C@H](N)C(=O)O; Chg = N[C@H](C(=O)O)C1CCCCC1; Phg = N[C@H](C(=O)O)c1ccccc1; Dab = NCC[C@H](N)C(=O)O; CO = O=C([*:1])[*:2]; Alloc = C=CCOC(=O)*; NHAllyl = C=CCN*; Acm = CC(=O)NC*

Target: T1, human factor VIIa and TF (Homo sapiens, UniProt P08709)
T1 construct: human factor VIIa and TF
Assay: Determination of Ki for FVIIa inhibition (chromogenic assay, substrate S-2288)
Type: biochemical
Settings: human factor VIIa 5 nM and TF 10 nM, S-2288 500 μM, 25° C., 15 minute preincubation, pH 8.15; read-out: Factor VIIa inhibitory activities Ki
Method: The inhibitory activity (Ki) of each compound towards […] activity was determined using a chromogenic assay essentially as described previously. J. A. Ostrem, F. Al-Obeidi, P. Safar, A. Safarova, S. K. Stringer, M. Patek, M. T. Cross, J. Spoonamore, J. C. LoCascio, P. Kasireddy, D. S. Thorpe, N. Sepetov, M. Lebi, P. Wildgoose, P. Strop, "Discovery of a novel, potent, and specific family of factor Xa inhibitors via combinatorial chemistry". Biochemistry 37 (1998) 1053-1059. Kinetic assays were conducted at 25° C. in half-area microtiter plates (Costar Corp., Cambridge, Mass.) using a kinetic plate reader (Molecular Devices Spectramax 250). A typical assay consisted of 25 μl of human factor VIIa and TF (5 nM and 10 nM, respective final concentration) combined with 40 μl of inhibitor dilutions in 10% DMSO/TBS-PEG buffer (50 mM Tris, 15 mM NaCl, 5 mM CaCl2; 0.05% PEG 8k, pH 8.15). Following a 15 minute preincubation period, the assay was initiated by the addition of 35 μl of the chromogenic substrate S-2288 (D-Ile-Pro-Arg-pNA, Pharmacia Hepar Inc, 500 μM final concentration.). The apparent inhibition constants were calculated from the slope of the progress curves during the linear part of the time course, typically between 1 and 5 min following addition of substrate to the assay. The true Ki was subsequently determined for each compound by correcting for substrate concentration (S) and the Km using the formula Ki=Ki app/(1+(S)/Km). I. H. Segal, Enzyme Kinetics, pp 100-125 (John Wiley & Sons, N.Y., 1975).

T1 sequence (P08709 213-466 limits assumed): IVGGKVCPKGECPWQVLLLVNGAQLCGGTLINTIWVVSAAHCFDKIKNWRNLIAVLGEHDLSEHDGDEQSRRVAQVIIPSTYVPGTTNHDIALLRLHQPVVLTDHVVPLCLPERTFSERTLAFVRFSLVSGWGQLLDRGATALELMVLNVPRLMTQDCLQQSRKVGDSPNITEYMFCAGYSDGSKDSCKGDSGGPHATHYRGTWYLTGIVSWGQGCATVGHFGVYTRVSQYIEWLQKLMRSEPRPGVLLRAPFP
T1 sequence (P08709 61-212 limits assumed): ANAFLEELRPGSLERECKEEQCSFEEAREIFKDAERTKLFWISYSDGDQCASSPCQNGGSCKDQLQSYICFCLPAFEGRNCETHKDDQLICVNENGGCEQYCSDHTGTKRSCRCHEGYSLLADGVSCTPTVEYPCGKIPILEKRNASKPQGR
T1 sequence (P13726 33-295 partner): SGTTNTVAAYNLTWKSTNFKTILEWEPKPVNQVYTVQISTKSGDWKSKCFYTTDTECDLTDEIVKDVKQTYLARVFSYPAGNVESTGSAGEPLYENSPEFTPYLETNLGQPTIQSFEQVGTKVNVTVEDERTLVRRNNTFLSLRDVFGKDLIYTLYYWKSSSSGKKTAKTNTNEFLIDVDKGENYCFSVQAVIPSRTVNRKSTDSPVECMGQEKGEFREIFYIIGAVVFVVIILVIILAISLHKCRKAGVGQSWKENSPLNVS

In order of falling Ki:
1. C=CCOC(=O)N[C@@H](Cc1ccc(C(=N)N)cc1)C(=O)N[C@@H](CCC(=O)O)C(=O)N[C@H](CCCCNC(=N)N)C(=O)N[C@@H](CC1CCCCC1)C(N)=O [Alloc--pAph--Glu--D--Lys[--C(=NH)--NH2]--Cha--NH2] (Alloc-[Phe(4-amidino)]E[d(hArg)][Cha]-NH2)  22000 nM
2. C=CCOC(=O)N[C@@H](Cc1ccc(C(=N)N)cc1)C(=O)N[C@@H](CCC(=O)O)C(=O)N[C@H](Cc1ccc(NC(=N)N)cc1)C(=O)N[C@@H](CC1CCCCC1)C(N)=O [Alloc--pAph--Glu--D--Phe(4-guanidino)--Cha--NH2] (Alloc-[Phe(4-amidino)]E[dPhe(4-guanidino)][Cha]-NH2)  11300 nM
3. C=CCOC(=O)N[C@@H](Cc1ccc(C(=N)N)cc1)C(=O)N[C@@H](CCC(=O)O)C(=O)N[C@@H](CCCN)C(N)=O [Alloc--pAph--Glu--Orn--NH2]  6200 nM
4. C=CCOC(=O)N[C@@H](Cc1ccc(C(=N)N)cc1)C(=O)N[C@@H](CCC(=O)O)C(=O)N[C@@H](CC(N)=O)C(=O)N(C)Cc1cccc2ccccc12 [Alloc--pAph--Glu--Asn-N-methyl-N-(1-naphthylmethyl)amide]  1700 nM
5. C=CCOC(=O)N[C@@H](Cc1ccc(C(=N)N)cc1)C(=O)N[C@@H](CCC(=O)O)C(=O)N[C@@H](CC(N)=O)C(=O)NCCN1CCOCC1 [Alloc--pAph--Glu--Asn-2-(4-morpholinyl)ethylamide]  410 nM
6. C=CCOC(=O)N[C@@H](Cc1ccc(C(=N)N)cc1)C(=O)N[C@@H](CCC(=O)O)C(=O)N[C@@H](CC(N)=O)C(=O)N(Cc1ccccc1)Cc1ccccc1 [Alloc--pAph--Glu--Asn-N,N-dibenzylamide]  410 nM
7. C=CCOC(=O)N[C@@H](Cc1ccc(C(=N)N)cc1)C(=O)N[C@@H](CCC(=O)O)C(=O)N[C@@H](CNC(=N)N)C(N)=O [Alloc--pAph--Glu--Dap[--C(=NH)--NH2]--NH2]  260 nM
8. C=CCOC(=O)N[C@@H](Cc1ccc(C(=N)N)cc1)C(=O)N[C@@H](CCC(=O)O)C(=O)N[C@@H](CCCNC(=N)N)C(=O)N[C@H](C(N)=O)C1CCCCC1 [Alloc--pAph--Glu--Arg--Chg--NH2, Alloc-pAph-Glu-Arg-Chg-NH2] (Alloc-[Phe(4-amidino)]ER[Chg]-NH2)  238 nM
9. C=CCOC(=O)N[C@@H](Cc1ccc(C(=N)N)cc1)C(=O)N[C@@H](CCC(=O)O)C(=O)N[C@@H](CCNC(C)=N)C(=O)N[C@@H](CC1CCCCC1)C(N)=O [Alloc--pAph--Glu--Dab[--C(=NH)--CH3]--Cha--NH2]  190 nM
10. C=CCOC(=O)N[C@@H](Cc1ccc(C(=N)N)cc1)C(=O)N[C@@H](CCC(=O)O)C(=O)N[C@@H](CC(N)=O)C(=O)NCC1CCCCC1 [Alloc--pAph--Glu--Asn--NH--CH2 --Chx, Alloc-pAph-Glu-Asn-NH--CH2 -Chx]  150 nM
11. C=CCOC(=O)N[C@@H](Cc1ccc(C(=N)N)cc1)C(=O)N[C@@H](CCC(=O)O)C(=O)N[C@@H](Cc1c[nH]cn1)C(=O)N[C@@H](CC1CCCCC1)C(N)=O [Alloc--pAph--Glu--His--Cha--NH2] (Alloc-[Phe(4-amidino)]EH[Cha]-NH2)  140 nM
12. C=CCOC(=O)N[C@@H](Cc1ccc(C(=N)N)cc1)C(=O)N[C@@H](CCC(=O)O)C(=O)N[C@@H](CCCNC(C)=N)C(=O)N[C@@H](CC1CCCCC1)C(N)=O [Alloc--pAph--Glu--Orn[--C(=NH)--CH3]--Cha--NH2] (Alloc-[Phe(4-amidino)]E[Orn(acetimidoyl)][Cha]-NH2)  130 nM
13. C=CCOC(=O)N[C@@H](Cc1ccc(C(=N)N)cc1)C(=O)N[C@@H](CCC(=O)O)C(=O)N[C@@H](CSCNC(C)=O)C(=O)N[C@@H](CC1CCCCC1)C(N)=O [Alloc--pAph--Glu--Cys(Acm)--Cha--NH2] (Alloc-[Phe(4-amidino)]EC(Acm)[Cha]-NH2)  120 nM
14. C=CCOC(=O)N[C@@H](Cc1ccc(C(=N)N)cc1)C(=O)N[C@@H](CCC(=O)O)C(=O)N[C@@H](Cc1ccc(NC(=N)N)cc1)C(=O)N[C@@H](CC1CCCCC1)C(N)=O [Alloc-pAph-Glu-Phe(4-guanidino)-Cha-NH2] (Alloc-[Phe(4-amidino)]E[Phe(4-guanidino)][Cha]-NH2)  120 nM
15. C=CCOC(=O)N[C@@H](Cc1ccc(C(=N)N)cc1)C(=O)N[C@@H](CCC(=O)O)C(=O)NCC(=O)N[C@@H](CC1CCCCC1)C(N)=O [Alloc--pAph--Glu--Gly--Cha--NH2, Alloc-pAph-Glu-Gly-Cha-NH2] (Alloc-[Phe(4-amidino)]EG[Cha]-NH2)  120 nM
16. C=CCOC(=O)N[C@@H](Cc1ccc(C(=N)N)cc1)C(=O)N[C@@H](CCC(=O)O)C(=O)N[C@@H](CC#N)C(=O)N[C@@H](CC1CCCCC1)C(N)=O [Alloc--pAph--Glu--Ala(3-CN)--Cha--NH2] (Alloc-[Phe(4-amidino)]E[Ala(CN)][Cha]-NH2)  120 nM
17. C=CCOC(=O)N[C@@H](Cc1ccc(C(=N)N)cc1)C(=O)N[C@@H](CCC(=O)O)C(=O)N[C@@H](CC(N)=O)C(=O)NCc1ccc(N(C)C)cc1 [Alloc--pAph--Glu--Asn-4-dimethylaminobenzylamide]  110 nM
18. C=CCOC(=O)N[C@@H](Cc1ccc(C(=N)N)cc1)C(=O)N[C@@H](CCC(=O)O)C(=O)N[C@@H](CC(N)=O)C(=O)NCCC(C)C [Alloc--pAph--Glu--Asn-3-methylbutylamide]  110 nM
19. C=CCOC(=O)N[C@@H](Cc1ccc(C(=N)N)cc1)C(=O)N[C@@H](CCC(=O)O)C(=O)N[C@@H](CC(N)=O)C(=O)NCCc1ccccn1 [Alloc--pAph--Glu--Asn-2-(2-pyridyl)ethylamide]  71 nM
20. C=CCOC(=O)N[C@@H](Cc1ccc(C(=N)N)cc1)C(=O)N[C@@H](CCC(=O)O)C(=O)N[C@@H](CCC#N)C(=O)N[C@@H](CC1CCCCC1)C(N)=O [Alloc--pAph--Glu-2-Abu(4-CN)--Cha--NH2] (Alloc-[Phe(4-amidino)]E[Abu(4-CN)][Cha]-NH2)  63 nM
21. C=CCOC(=O)N[C@@H](Cc1ccc(C(=N)N)cc1)C(=O)N[C@@H](CCC(=O)O)C(=O)N[C@@H](CCN)C(=O)N[C@@H](CC1CCCCC1)C(N)=O [Alloc--pAph--Glu--Dab--Cha--NH2, Alloc-pAph-Glu-Dab-Cha-NH2] (Alloc-[Phe(4-amidino)]E[Dab][Cha]-NH2)  55 nM
22. C=CCOC(=O)N[C@@H](Cc1ccc(C(=N)N)cc1)C(=O)N[C@@H](CCC(=O)O)C(=O)N[C@@H](CC(N)=O)C(=O)NCc1ccc(F)cc1F [Alloc--pAph--Glu--Asn-2,4-difluorobenzylamide]  51 nM
23. C=CCOC(=O)N[C@@H](Cc1ccc(C(=N)N)cc1)C(=O)N[C@@H](CCC(=O)O)C(=O)N[C@@H](CC(N)=O)C(=O)NCC(c1ccccc1)c1ccccc1 [Alloc--pAph--Glu--Asn-2,2-diphenylethylamide]  49 nM
24. C=CCOC(=O)N[C@@H](Cc1ccc(C(=N)N)cc1)C(=O)N[C@@H](CCC(=O)O)C(=O)N[C@@H](CCCNC(=N)N)C(=O)N[C@@H](CC1CCCCC1)C(N)=O [Alloc--pAph--Glu--Arg--Cha--NH2, Alloc-pAph-Glu-Arg-Cha-NH2] (Alloc-[Phe(4-amidino)]ER[Cha]-NH2)  46 nM
25. C=CCOC(=O)N[C@@H](Cc1ccc(C(=N)N)cc1)C(=O)N[C@@H](CCC(=O)O)C(=O)N[C@@H](CC(N)=O)C(=O)NC1CCCc2ccccc21 (some centres unmarked) [Alloc--pAph--Glu--Asn-1,2,3,4-tetrahydro-1-naphthylamide]  45 nM
26. C=CCNC(=O)N[C@@H](Cc1ccc(C(=N)N)cc1)C(=O)N[C@@H](CCC(=O)O)C(=O)N[C@@H](CCCNC(=N)N)C(=O)N[C@@H](CC1CCCCC1)C(N)=O [allyl-NH--C(O)-pAph-Glu-Arg-Cha-NH2] ({NHAllyl-CO}-[Phe(4-amidino)]ER[Cha]-NH2)  42 nM
27. C=CCOC(=O)N[C@@H](Cc1ccc(C(=N)N)cc1)C(=O)N[C@@H](CCC(=O)O)C(=O)N[C@@H](CC(N)=O)C(=O)NCc1ccc2ccccc2c1 [Alloc--pAph--Glu--Asn-2-naphthylmethylamide]  27 nM
28. C=CCOC(=O)N[C@@H](Cc1ccc(C(=N)N)cc1)C(=O)N[C@@H](CCC(=O)O)C(=O)N[C@@H](CC(N)=O)C(=O)NCc1ccc(Cl)c(Cl)c1 [Alloc--pAph--Glu--Asn-3,4-dichlorobenzylamide]  26 nM
29. C=CCOC(=O)N[C@@H](Cc1ccc(C(=N)N)cc1)C(=O)N[C@@H](CCC(=O)O)C(=O)N[C@@H](CC(N)=O)C(=O)NCCc1cccc(Cl)c1 [Alloc--pAph--Glu--Asn-2-(3-chlorophenyl)ethylamide]  23 nM
30. C=CCOC(=O)N[C@@H](Cc1ccc(C(=N)N)cc1)C(=O)N[C@@H](CCC(=O)O)C(=O)N[C@@H](CC(N)=O)C(=O)NCCc1cccc2ccccc12 [Alloc--pAph--Glu--Asn-2-(1-naphthyl)ethylamide]  22 nM
31. C=CCOC(=O)N[C@@H](Cc1ccc(C(=N)N)cc1)C(=O)N[C@@H](CCC(=O)O)C(=O)N[C@H](C(=O)N[C@@H](CC1CCCCC1)C(N)=O)c1ccccc1 [Alloc--pAph--Glu--Phg--Cha--NH2] (Alloc-[Phe(4-amidino)]E[Phg][Cha]-NH2)  17 nM
32. C=CCOC(=O)N[C@@H](Cc1ccc(C(=N)N)cc1)C(=O)N[C@@H](CCC(=O)O)C(=O)N[C@@H](Cc1c[nH]c2ccccc12)C(=O)N[C@@H](CC1CCCCC1)C(N)=O [Alloc--pAph--Glu--Trp--Cha--NH2] (Alloc-[Phe(4-amidino)]EW[Cha]-NH2)  17 nM
